Patent US20260337187A1, “COMPOUNDS FOR TREATMENT OF INFLAMMATORY PROCESSES” (THORNE LIMITED, priority 2022, published 2026)

Tests used:
Assay type in all cases: cell-based
[1] = system: human primary neutrophils; assay: Neutrophil ROS production (fMLP triggered, DHR-123, FACS)
Protocol: The effect of 4 different concentrations (from left to right: 100, 50, 20 and 10 μM) of B2 is shown. Each symbol represents one experiment.
Neutrophil ROS production: Neutrophil reactive oxygen species (ROS) production was measured on human primary neutrophils, isolated from fresh blood samples using the MACSexpress™ neutrophil kit as described in the manufacturer's instructions (Miltenyi Biotec Inc.). Neutrophils in RPMI containing 50 μm dihydrorhodamine 123 (DHR-123) were triggered to produce ROS by treatment with 20 μm bacterial peptide N-formylmethionyl-leucyl-phenylalanine (fMLP) as a physiologically relevant stimulant. ROS were measured by FACS based on the conversion of DHR-123 to Rhodamine-123.
To investigate the effect of neutrophil ROS production by B2, human primary neutrophils, isolated from fresh blood samples, were triggered to produce reactive oxygen species (ROS) by treatment with the bacterial peptide N-formylmethionyl-leucyl-phenylalanine (fMLP) as a physiologically relevant stimulant and ROS were measured by FACS based on the conversion of dihydrorhodamine 123 to rhodamine 123. The effect of 4 different concentrations of B2 is shown (FIG. 2).

human primary mast cells = assay: Mast cell degranulation (Lamp-1/CD107a by FACS); settings: IgE/anti-IgE; FIG. 6 (100, 50, 20 μM)
Protocol: Three different concentrations of B2 were tested (from left to right: 100, 50 and 20 μM) and the average of 11 experiments is shown as % reduction in degranulation (left plot). Degranulation was also measured at 3 time points (from left to right: 30, 15 and 5 minutes) after addition of 100 μM B2 (right plot).
Mast cell degranulation: Human primary mast cells were developed in StemSpan™ SFEM including 125 ng/ml SCF and 20 ng/ml IL3 from CD34+ hematopoietic precursor cells, and their purity after 4 to 5 weeks measured by FACS for c-kit and FceRI expression. This was measured by FACS using the appearance of Lamp-1 (CD107a) in line with that previously described by Klewer et al. (2021), applied here to human primary mast cells. Degranulation was triggered by preincubation of mast cells overnight with 1.3 μg/ml IgE followed by treatment with 0.2 μg/ml anti-IgE for 30 min.
To investigate the inhibition of mast cell degranulation by B2, degranulation was measured by FACS using the appearance of Lamp-1 (CD107a) on the surface of human primary mast cells upon degranulation. Degranulation was triggered by IgE/anti-IgE and B2 was applied 30 minutes before adding IgE. Three different concentrations of B2 were tested; from left to right in FIG. 6 (left plot): 100, 50 and 20 μM. […] Degranulation was also measured at 3 time points after addition of 100 μM B2 (FIG. 6, right plot).

[2] = system: human primary eosinophils; assay: Eosinophil ROS production (PMA triggered, DHR-123, FACS); settings: FIG. 7 (100, 50, 25 μM)
Protocol: The effect of 3 different concentrations (from right to left: 100, 50 and 25 μM) of B2 is shown in comparison to control (far left) and ROS triggered control (PMA; second from left); average of 3 experiments.
Eosinophil ROS production: Human primary eosinophils were purified from buffy coat, firstly by density gradient centrifugation on ficoll to isolate total peripheral blood mononuclear cell (PBMC), and then by negative selection using the eosinophil purification kit from Miltenyi Inc. as per manufacturer's instructions. The eosinophils were then resuspended in pre-warmed tissue culture media, which had been left in the incubator overnight to equilibrate, containing 25 μM dihydrorhodamine 123 (DHR-123) at a cell density of 1×10^6 cells/ml. The cells were then stimulated with phorbol 12-myristate 13-actetate (PMA) at a concentration of 1 μM in the presence or absence of B2 or DMSO for control in the incubator for 20 minutes and then immediately put on ice to stop the reaction. Levels of the oxidized DHR in the samples were measured by flow cytometry as described above in relation to neutrophil ROS production.
To investigate inhibition of eosinophil ROS production by B2, human primary eosinophils, isolated from fresh blood samples, were triggered to produce ROS by treatment with PMA, and ROS measured by FACS based on the conversion of dihydrorhodamine 123 to rhodamine 123 (FIG. 7).

[3] = system: Primary human pulmonary microvascular endothelial cells (HPMEC); assay: Neutrophil adhesion to endothelial cells; settings: 10, 20 and 50 μM B2, TNF-α stimulated HPMEC (FIG. 11)
Description: The number of adhered green-fluorescent labeled neutrophils per field of view normalized to the area covered by endothelial cells per field of view is shown. Three concentrations of B2 are shown next to the solvent (DMSO) control. An exemplary experiment out of three is shown.
Neutrophil adhesion to endothelial cells: Primary human pulmonary microvascular endothelial cells (HPMEC) were purchased from Promocell and maintained in endothelial cell media from Promocell as per the company's protocol. The endothelial cells were plated in flat bottom 96 well plastic plates at a concentration of 50,000 cells/well. After 24 h the endothelial cells were stimulated overnight by TNF-α (100 ng/ml) and the inhibitor. Neutrophils were isolated from whole blood using MACSxpress Neutrophil isolation kit. […] Samples were analyzed in triplicates and 3 fields of view were imaged per well. Cells per field of view were quantified using FiJi software.
To investigate the adhesion of neutrophils to endothelial cells, human primary neutrophils, were fluorescently labeled with 1 μM CellTracker dye and resuspended in HBS solution prior to addition of B2 or DMSO. Green fluorescent adherent cells were counted, the area covered by endothelial cell was measured, and the number of neutrophils adherent to endothelial cells normalized for the area covered by endothelial cells.

In the case of `Cc1onc(-c2ccccc2Cl)c1C(=O)Nc1nc2ccc([N+](=O)[O-])cc2s1` [B2, 3-(2-chlorophenyl)-5-methyl-N-(6-nitrobenzo[d]thiazol-2-yl)isoxazole-4-carboxamide], the “inhibition of neutrophil ROS production” value ([1]; 50 μM B2, fMLP) is reported as “clear inhibition of ROS production”, the “inhibition of neutrophil ROS production” value ([1]; 100 μM B2, fMLP) is reported as “clear inhibition of ROS production” and the “neutrophil ROS production” value ([1]; fMLP, concentration not given in the sentence (FIG. 2)) is reported as “substantially reduced”. The “IgE-mediated mast cell degranulation” value (human primary mast cells) was “inhibited by B2 in IgE-mediated degranulation”, the “production of reactive oxygen species (ROS) by human primary eosinophils” value [2] was “reduced production” and the “neutrophil adhesion to endothelial cells” value [3] was “inhibition of neutrophil adhesion to endothelial cells”.
